# Source: patent publication US12144886B2, “Perineural administration of resiniferatoxin for treatment of maladaptive pain” (Sorrento Therapeutics, Inc., priority 2018, dated 2024)
# How the values were obtained:
# [1] = test system: declawed cat with maladaptive pain; test: Tolerance and safety of perineural RTX in a single declawed cat; format: in vivo
# Method: The safety of the injection of RTX is assessed by comparing the results of a complete blood count (CBC) and a chemistry panel done at screening with the results obtained at day 14. Cats were also monitored for adverse events.
# Tolerance, safety, and analgesic effects of RTX administration were evaluated in a single declawed cat with maladaptive pain. […] The cat also presented a self-limiting decreased appetite for 12 hours post injection.
# [2] = test system: declawed cats with chronic distal thoracic limb pain; test: QoL and pain monitoring (CSOMf, FMPI, owner reports) in open-label trial of perineural RTX in declawed cats; format: in vivo, cat
# Method: Cats suffering from severe bilateral chronic pain (more than 90 days) as a result of severe complications after onychectomy were enrolled in this study (an exploratory, open-label, multicenter clinical trial). Thirteen (13) cases were treated for initial pain and reduced quality of life (QoL). Then, bilateral perineural distal limb injections (ring block technique) were administered under general anesthesia (a combination of diphenhydramine, buprenorphine, dexmedetomidine, ketamine, and isoflurane). Following a published technique (Enomoto et al., 2016) for the nerve block of the manus of the cat, the total dose of RTX was equally distributed adjacent to the 1) superficial branch of the radial nerve, 2) dorsal branch of the ulnar nerve, 3) median nerve and superficial branch of the palmar branch of the ulnar nerve, and 4) deep branch of palmar branch of the ulnar nerve. A total of 2.5 ug (1.25 ug/1 mL per forelimb in Group 1, n=7) and 5 ug (2.5 ug/1 mL per forelimb in Group 2, n=6) of RTX was injected as a one-time treatment. Group 2 included the cat for which detailed results are provided in Example B above. Monitoring of QoL and pain for the following 28 days was accomplished using the Client-Specific Outcome Measures feline (CSOMf), the Feline Musculoskeletal Pain Index (FMPI), two post-injection physical examinations, and videography on days 3, 7, 14, and 28 post injections.
# [3] = one cat, 2.5 μg/forelimb perineural
smiles,measurement,setting,value
"C=C(C)[C@]12C[C@@H](C)[C@@]34O[C@](Cc5ccccc5)(O[C@@H]1[C@@H]3C=C(COC(=O)Cc1ccc(O)c(OC)c1)C[C@]1(O)C(=O)C(C)=C[C@@H]41)O2 [RTX, resiniferatoxin]",Allergic-like reactions,[1]; one cat,No signs of allergic-like reactions were observed
same,Edema or pain in the injected areas,[1]; one cat,no signs of edema or pain were present
same,"Resolution of adverse events (panting, salivation)",[1]; one cat,resolved within two hours
same,Complications during RTX administration,[1]; [3],No complications were observed
same,Tolerability of injection,[1]; [3],generally well tolerated
same,Adverse events,[1]; one hour post-injection,panting and salivation
same,Duration of self-limiting decreased appetite,"[1]; post injection, one cat",12 h
same,CSOMf and FMPI scores,"[2]; 28-day monitoring period, 13 cats",clear improvement
same,Owner-reported natural and pathological adopted behaviors (QoL),[2]; both groups,significant changes
same,Duration of improvements reported informally,[2]; in some cases,over 6 months
same,Treatment of distal thoracic limb pain,"[2]; perineural injections, cats",can effectively treat
